# Where two headings read alike, the source gives them in different places.
# Columns and labels:
# Jurkat = test: MTS proliferation assay, Jurkat; assay type: cell-based, human; details: 72 h incubation, read-out: MTS proliferation assay IC 50 Jurkat
# Method in brief: (§1)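 Proliferation: RPMI-1640/FCS complete medium, 37 °C, 7.5% CO2, cells plated 24 h pre-dose; compounds at 10, 3, 1, 0.3 μM final for 72 h; MTS, 492 nm.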
# Jily = test: MTS proliferation assay, Jily; assay type: cell-based; details: 72 h incubation, read-out: MTS proliferation assay IC 50 Jily
# Method in brief: (§2)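 Viability after 72 h compound exposure at 10, 3, 1 and 0.3 μM final was scored by MTS absorbance (492 nm, 3 h reagent incubation), with cells kept in RPMI-1640 containing 5% or 10% fetal calf serum.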
# HT1080 = test: MTS proliferation assay, HT1080; assay type: cell-based, human; details: HT1080, 72 h incubation, read-out: MTS proliferation assay IC 50 HT1080
# Method in brief: as §1
# HeLa = test: MTS proliferation assay, HeLa; assay type: cell-based, human; details: 72 h incubation, read-out: MTS proliferation assay IC 50 HeLa
# Method in brief: as §1
# MRC5 = test: MTS proliferation assay, MRC5; assay type: cell-based; details: MRC5, 72 h incubation, read-out: MTS proliferation assay IC 50 MRC5
# Method in brief: as §2
# [1] = tested on: adherent cells or suspension cells; test: Hoechst 33342 nuclear staining (fraction of apoptotic nuclei); assay type: cell-based; design: key: 0 relating to no activity; 1 relating to weak activity comprising less than 70% of the cells; score 2 relating to strong activity comprising more than 70% of the cells
SMILES,IC50 (Jily),"Hoechst 33342 nuclear staining score ([1]; H460, conc 0.01 μm)","Hoechst 33342 nuclear staining score ([1]; H460, conc 0.1 μm)","Hoechst 33342 nuclear staining score ([1]; H460, conc 1 μm)","Hoechst 33342 nuclear staining score ([1]; HeLa, conc 0.01 μm)","Hoechst 33342 nuclear staining score ([1]; HeLa, conc 0.1 μm)","Hoechst 33342 nuclear staining score ([1]; HeLa, conc 1 μm)","Hoechst 33342 nuclear staining score ([1]; Jily, conc 0.01 μm)","Hoechst 33342 nuclear staining score ([1]; Jily, conc 0.1 μm)","Hoechst 33342 nuclear staining score ([1]; Jily, conc 1 μm)","Hoechst 33342 nuclear staining score ([1]; Jurkat, conc 0.01 μm)","Hoechst 33342 nuclear staining score ([1]; Jurkat, conc 0.1 μm)","Hoechst 33342 nuclear staining score ([1]; Jurkat, conc 1 μm)","Hoechst 33342 nuclear staining score ([1]; MRC5, conc 0.01 μm)","Hoechst 33342 nuclear staining score ([1]; MRC5, conc 0.1 μm)","Hoechst 33342 nuclear staining score ([1]; MRC5, conc 1 μm)","Hoechst 33342 nuclear staining score ([1]; PBLs, conc 0.01 μm)","Hoechst 33342 nuclear staining score ([1]; PBLs, conc 0.1 μm)","Hoechst 33342 nuclear staining score ([1]; PBLs, conc 1 μm)",IC50 (Jurkat; Homo sapiens),further results
COc1cc(C(=O)Cn2c(-c3nonc3N)nc3ccccc32)ccc1OC(C)=O [Example 75],100 to 1000 nM,0,0,2 (score 2 relating to strong activity comprising more than 70% of the cells),0,0,1 (1 relating to weak activity comprising less than 70% of the cells),0,0,2 (score 2 relating to strong activity comprising more than 70% of the cells),0,0,2 (score 2 relating to strong activity comprising more than 70% of the cells),0,0,1 (1 relating to weak activity comprising less than 70% of the cells),0,0,0,–,IC50 (Jurkat): 100 to 1000 nM; IC50 (HT1080): 100 to 1000 nM; IC50 (HeLa): 100 to 1000 nM; IC50 (MRC5): 100 to 1000 nM
"Nc1nonc1-c1nc2ccccc2n1COc1ccccc1 [Example 7, 4-(1-Phenoxymethyl-1H-benzimidazol-2-yl)-furazan-3-ylamine]",100 to 1000 nM,0,0,2 (score 2 relating to strong activity comprising more than 70% of the cells),0,0,2 (score 2 relating to strong activity comprising more than 70% of the cells),0,0,2 (score 2 relating to strong activity comprising more than 70% of the cells),0,0,2 (score 2 relating to strong activity comprising more than 70% of the cells),0,0,0,0,0,0,100 to 1000 nM,"IC50 (HT1080; Homo sapiens, HT-1080): 100 to 1000 nM; IC50 (HeLa; Homo sapiens): 100 to 1000 nM; IC50 (MRC5; Homo sapiens): 100 to 1000 nM"
"COC(=O)CCNc1nonc1-c1nc2ccccc2n1CC(=O)c1ccc(Cl)cc1 [Example 9, 4-[1-(4-Chlorophenacyl)-1H-benzimidazol-2-yl]-furazan-3-yl-N-(2-methoxycarbonylethyl)-amine]",100 to 1000 nM,0,0,0,0,0,2 (score 2 relating to strong activity comprising more than 70% of the cells),0,0,2 (score 2 relating to strong activity comprising more than 70% of the cells),0,0,2 (score 2 relating to strong activity comprising more than 70% of the cells),0,0,2 (score 2 relating to strong activity comprising more than 70% of the cells),0,0,2 (score 2 relating to strong activity comprising more than 70% of the cells),100 to 1000 nM,"IC50 (HT1080; Homo sapiens, HT-1080): 100 to 1000 nM; IC50 (HeLa; Homo sapiens): 100 to 1000 nM; IC50 (MRC5; Homo sapiens): 100 to 1000 nM"
